Values quoted from earlier work in patent US20080167325A1, “VALACYCLOVIR COMPOSITIONS” (priority 2006, published 2008).

Tests used:
[1] = compared with acyclovir
[2] = first-pass hepatic metabolism through enzymatic hydrolysis

With `CC(C)[C@H](N)C(=O)OCCOCn1cnc2c(=O)[nH]c(N)nc21` [Valacyclovir, L-valine, 2-[(2-amino-1,6-dihydro-6-oxo-9H-purin-9-yl)methoxy]ethyl ester] as the molecule, how does the bioavailability [1] read?
Its bioavailability is “much improved bioavailability”.

What about the “metabolized by cytochrome P450 enzymes” value (cytochrome P450 enzymes) of the same molecule?
The value was “Neither valacyclovir nor acyclovir is metabolized”.

And the “converted to the active compound, acyclovir, and L-valine” value [2]?
Its value is roughly 99%.
